In patent US12091402B2 (Avilar Therapeutics, Inc., priority 2021, dated 2024):
Read-outs that look alike come from different tables or passages of the source.

Columns and labels:
[1] = system: HepG2 cells; test: Cellular uptake assay of AF488-labeled antibody (HepG2); type: cell-based
Experimental: The cellular uptake assay is designed to measure compound-mediated cellular uptake of fluorescently labeled antibody following ternary complex formation with the ASGPR receptor and endocytosis of the entire complex into cells.
Human IgG (Sigma-Aldrich, 14506) was covalently labeled with Alexa Fluor 488 using the Alexa Fluor™ 488 Protein Labeling Kit (Thermo Fisher, A10235) following the manufacturer's instructions. HepG2 cells were plated in DMEM supplemented with 10% FBS at 5,000 cells per well in a 96-well microtiter plate and incubated for approximately 18 hours at 37° C./5% CO2. For studies using human IgG, 100 nM AF488-labeled human IgG antibodies and serial dilutions of IgG-based degrader (0.1% DMSO final concentration) were added to the cells and the mixture was incubated at 37° C. for 6 hours. For studies using DNP, 100 nM AF488-labeled DNP antibodies and serial dilutions of DNP-based degrader (0.1% DMSO final concentration) were added to the cells and the mixture was incubated at 37° C. for 6 hours. HepG2 cells were fixed in 100% methanol at −20° C. for 20 min, washed 3× with PBS, then stained with DAPI (Thermo, Cat #H3570). HepG2 cells were imaged for DAPI and Alexa Fluor 488 using the Operetta CLS, high-content analysis system (PerkinElmer). Data is presented as the ratio of the number of cells positive for hIgG or DNP (AF-488 fluorescence) over the total cell number (measured by DAPI).

[2] = biological target: T1, ASGPR receptor on the cell surface (HepG2 cells) (Homo sapiens, UniProt P07306); test: Ternary complex formation assay (flow cytometry, HepG2); type: cell-based; details: HepG2 cells
T1 construct: host or cells: HepG2
T1 sequence (P07306 1-291): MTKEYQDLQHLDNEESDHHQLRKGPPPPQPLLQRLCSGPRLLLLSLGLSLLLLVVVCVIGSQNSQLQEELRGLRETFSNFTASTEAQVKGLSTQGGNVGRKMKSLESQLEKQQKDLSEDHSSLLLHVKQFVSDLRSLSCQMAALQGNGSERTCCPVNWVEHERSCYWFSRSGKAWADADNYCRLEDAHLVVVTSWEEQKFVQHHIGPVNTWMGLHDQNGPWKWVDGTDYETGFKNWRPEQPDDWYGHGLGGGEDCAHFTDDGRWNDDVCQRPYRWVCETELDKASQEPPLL
T1 sequence (P07307 1-311 partner): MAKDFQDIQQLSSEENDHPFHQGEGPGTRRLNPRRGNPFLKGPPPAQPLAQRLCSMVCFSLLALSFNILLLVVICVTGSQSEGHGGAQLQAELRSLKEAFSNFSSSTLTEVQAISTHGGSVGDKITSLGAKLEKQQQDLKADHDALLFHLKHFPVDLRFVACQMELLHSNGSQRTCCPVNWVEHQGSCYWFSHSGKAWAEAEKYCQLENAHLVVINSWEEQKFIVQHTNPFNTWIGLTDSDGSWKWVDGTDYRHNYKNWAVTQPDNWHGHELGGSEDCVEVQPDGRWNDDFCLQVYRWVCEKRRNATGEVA
From the text: The ternary complex formation assay is designed to identify the concentration of Degrader required to form a complex between the degrader, a constant concentration of fluorescently-labeled antibody and the ASGPR receptor on the cell surface. The peak mean fluorescence intensity (MFI) occurs at the optimal degrader concentration for ternary complex formation. Sub-optimal concentrations of degrader (too much or too little) results in fewer complexes formed and a reduced […].
Human IgG (Sigma-Aldrich, 14506) was covalently labeled with Alexa Fluor 488 using the Alexa Fluor™ 488 Protein Labeling Kit (Thermo Fisher, A10235) following the manufacturer's instructions. HepG2 cells (ATCC, HIB-8065) were cultured to about 70% confluence and harvested by trypsinization. Single cell suspensions of HepG2 cells were plated in 96 well plates at 1×10^5 cells/well in cell culture media (DMEM supplemented with […]) and placed at 4° C. For studies using human IgG, cells were incubated with 100 nM AF488-labeled anti-human IgG and serial dilutions of IgG-based degrader for 1 hour at 4° C. For studies using DNP, cells were incubated with 100 nM AF488-labeled polyclonal rabbit anti-dinitrophenyl (DNP) antibodies (ThermoFisher) and serial dilutions of DNP-based degrader for 1 hour at 4° C. After washing once with ice-cold PBS containing 0.1% BSA and 0.1% sodium azide, cells were resuspended in 150 uL PBS+0.1% BSA and cell-associated AF488 fluorescence was measured by flow cytometry using the iQue® Screener PLUS Flow Cytometer (IntelliCyt).

[3] = biological target: T2, ASGPR (Homo sapiens, UniProt P07306); test: Affinity to ASGPR by surface plasmon resonance (SPR)
T2 sequence (P07306 1-291): T1 sequence (P07306 1-291)
Experimental: Biotinylated ASGPR (20 μg/ml) was immobilized on SA sensor chips (GE Healthcare) at flow rate of 5 μl/min for 90 sec reaching an immobilization level ranging from 500-3000 resonance units (RU). The running buffer was 50 mM HEPES, pH7.5, 150 mM NaCl, 50 mM CaCl2), 0.01% P20, 3% DMSO. The concentration of compounds vary from 2 mM to 5 nM depending on Kd values. The compounds are diluted 2 or 3-fold with 8 concentration points. Solutions containing serially diluted compounds are injected at a flow rate of 40 μL/min for 150-300 sec followed by a 90-300 sec dissociation phase for each concentration. The surface was regenerated using 50 mM HEPES, pH 7.5, 150 mM NaCl, 5 mM EDTA, 0.01% P20, 3% DMSO.
Data was processed using the analysis software in Biacore 8K to perform background subtraction, double referencing, and solvent correction. Values of affinity expressed as the dissociation constants (Kd) were determined by fitting the steady state binding responses (RUs) as a function of the concentration ([Compound]) using the following equation: RU=RUmax/(KD+[Compound]), where RU max is the calculated maximal response. Where appropriate double-referenced data were fit to using a 1:1 binding model for kinetic analysis.

[4] = biological target: IgG; test: Affinity to IgG by surface plasmon resonance (SPR); type: binding
Experimental: Immobilization levels ranging from 1000-1300 resonance units (RU) are obtained. The running buffer is 10 mM HEPES, pH 7.4, 400 mM NaCl, 0.005% P20, […].

[5] = HepG2 cells, read-out: Uptake EC50
[6] = ternary complex formation, read-out: TCF EC50
[7] = Biacore 8K, 25° C., IgG on CM5 chip, read-out: IgG SPR Binding Kd

CC(C)C[C@@H]1NC(=O)[C@H](Cc2c[nH]cn2)NC(=O)[C@H](Cc2c[nH]c3ccccc23)NC(=O)[C@H](C)NC(=O)[C@@H](NC(=O)[C@H](CC(=O)O)NC(=O)CCOCCOCCOCCOCCNC(=O)CCCc2cn(CCCCCC(=O)NC(COCCC(=O)NCCOCCOCCOCCO[C@@H]3O[C@H](CO)[C@H](O)[C@H](O)[C@H]3Nc3cncc(C(F)(F)F)n3)COCCC(=O)NCCOCCOCCOCCO[C@@H]3O[C@H](CO)[C@H](O)[C@H](O)[C@H]3Nc3cncc(C(F)(F)F)n3)nn2)CSSC[C@@H](C(=O)N[C@H](C(N)=O)[C@@H](C)O)NC(=O)[C@H](Cc2c[nH]c3ccccc23)NC(=O)[C@H](C(C)C)NC(=O)[C@H](CC(C)C)NC(=O)[C@H](CCC(=O)O)NC(=O)CNC1=O [Compound 89]
EC50 [1, 5]: < 100 nM | EC50 [2, 6]: < 100 nM

CC(C)C[C@@H]1NC(=O)[C@H](Cc2c[nH]cn2)NC(=O)[C@H](Cc2c[nH]c3ccccc23)NC(=O)[C@H](C)NC(=O)[C@@H]2CSSC[C@H](NC(=O)[C@H](Cc3c[nH]c4ccccc34)NC(=O)[C@H](C(C)C)NC(=O)[C@H](CC(C)C)NC(=O)[C@H](CCC(=O)O)NC(=O)CNC1=O)C(=O)N[C@@H]([C@@H](C)O)C(=O)N1CCC[C@@H]1C(=O)N1C[C@@H](NC(=O)CCOCCOCCOCCOCCNC(=O)CCCc3cn(CCCCCC(=O)NC(COCCC(=O)NCCOCCOCCOCCOC[C@H]4OC[C@H](Nc5nccc(C(F)(F)F)n5)[C@@H](O)[C@H]4O)(COCCC(=O)NCCOCCOCCOCCOC[C@H]4OC[C@H](Nc5nccc(C(F)(F)F)n5)[C@@H](O)[C@H]4O)COCCC(=O)NCCOCCOCCOCCOC[C@H]4OC[C@H](Nc5nccc(C(F)(F)F)n5)[C@@H](O)[C@H]4O)nn3)C[C@H]1C(=O)N[C@@H](CC(=O)O)C(=O)N2 [Compound 86]
EC50 [2, 6]: < 100 nM | Kd [3]: < 100 nM

CC(C)C[C@@H]1NC(=O)[C@H](Cc2cnc[nH]2)NC(=O)[C@H](Cc2c[nH]c3ccccc23)NC(=O)[C@H](C)NC(=O)[C@@H]2CSSC[C@H](NC(=O)[C@H](Cc3c[nH]c4ccccc34)NC(=O)[C@H](C(C)C)NC(=O)[C@H](CC(C)C)NC(=O)[C@H](CCC(=O)O)NC(=O)CNC1=O)C(=O)N[C@@H]([C@@H](C)O)C(=O)N1CCC[C@@H]1C(=O)N1C[C@@H](NC(=O)COCCOCCOCCOC[C@H]3OC[C@H](Nc4nccc(C(F)(F)F)n4)[C@@H](O)[C@H]3O)C[C@H]1C(=O)N[C@@H](CC(=O)O)C(=O)N2 [Compound 60]
EC50 ([2]; 100 nM AF488-labeled antibody, 1 hour at 4° C., class symbols, read-out: Ternary Complex EC50): < 100 nM | Kd [4, 7]: < 100 nM

CC(C)C[C@@H]1NC(=O)[C@H](Cc2c[nH]cn2)NC(=O)[C@H](Cc2c[nH]c3ccccc23)NC(=O)[C@H](C)NC(=O)[C@@H]2CSSC[C@H](NC(=O)[C@H](Cc3c[nH]c4ccccc34)NC(=O)[C@H](C(C)C)NC(=O)[C@H](CC(C)C)NC(=O)[C@H](CCC(=O)O)NC(=O)CNC1=O)C(=O)N[C@@H]([C@@H](C)O)C(=O)N1CCC[C@@H]1C(=O)N1C[C@@H](NC(=O)CNC(COCCC(=O)NCCOCCOCCOCCOC[C@H]3OC[C@H](Nc4cncc(C(F)(F)F)n4)[C@@H](O)[C@H]3O)COCCC(=O)NCCOCCOCCOCCOC[C@H]3OC[C@H](Nc4cncc(C(F)(F)F)n4)[C@@H](O)[C@H]3O)C[C@H]1C(=O)N[C@@H](CC(=O)O)C(=O)N2 [Compound 74]
EC50 [1, 5]: < 100 nM | Kd ([4]; SPR, read-out: IgG KD): < 100 nM

O=C(CCOCC(COCCC(=O)NCCOCCOCCOCCOC[C@@]12CO[C@@H](O1)[C@H](NC(=O)C(F)(F)F)[C@@H](O)[C@H]2O)NC(=O)COCCOCCOCCNc1ccccc1)NCCOCCOCCOCCOC[C@@]12CO[C@@H](O1)[C@H](NC(=O)C(F)(F)F)[C@@H](O)[C@H]2O [A12, 3,3′-((2-(2-(2-(2-(2-(phenylamino)ethoxy)ethoxy)ethoxy)acetamido)propane-1,3-diyl)bis(oxy))bis(N-(1-((1S,2R,3R,4R,5S)-2,3-dihydroxy-4-(2,2,2-trifluoroacetamido)-6,8-dioxabicyclo[3.2.1]octan-1-yl)-2,5,8,11-tetraoxatridecan-13-yl)propanamide)]
EC50 ([2]; 100 nM AF488-labeled antibody, 1 hour at 4° C., numeric bounds, read-out: Ternary Complex EC50): > 10000 nM

CC(C)C[C@@H]1NC(=O)[C@H](Cc2c[nH]cn2)NC(=O)[C@H](Cc2c[nH]c3ccccc23)NC(=O)[C@H](C)NC(=O)[C@@H]2CSSC[C@H](NC(=O)[C@H](Cc3c[nH]c4ccccc34)NC(=O)[C@H](C(C)C)NC(=O)[C@H](CC(C)C)NC(=O)[C@H](CCC(=O)O)NC(=O)CNC1=O)C(=O)N[C@@H]([C@@H](C)O)C(=O)N1CCC[C@@H]1C(=O)N1C[C@@H](NC(=O)CCOCCOCCNC(=O)CCCc3cn(CCCCCC(=O)NC(COCCC(=O)NCCOCCOCCOCCOC[C@@]45CO[C@@H](O4)[C@H](Nc4nc(Cl)ns4)[C@@H](O)[C@H]5O)COCCC(=O)NCCOCCOCCOCCOC[C@@]45CO[C@@H](O4)[C@H](Nc4nc(Cl)ns4)[C@@H](O)[C@H]5O)nn3)C[C@H]1C(=O)N[C@@H](CC(=O)O)C(=O)N2 [Compound 17]
EC50 ([1]; HepG2 cells, 100 nM AF488-labeled antibody, 37° C. for 6 hours, class symbols, read-out: Uptake Assay EC50): < 100 nM | Kd [4, 7]: < 100 nM

CC(C)C[C@@H]1NC(=O)[C@H](Cc2cnc[nH]2)NC(=O)[C@H](Cc2c[nH]c3ccccc23)NC(=O)[C@H](C)NC(=O)[C@@H]2CSSC[C@H](NC(=O)[C@H](Cc3c[nH]c4ccccc34)NC(=O)[C@H](C(C)C)NC(=O)[C@H](CC(C)C)NC(=O)[C@H](CCC(=O)O)NC(=O)CNC1=O)C(=O)N[C@@H]([C@@H](C)O)C(=O)N1CCC[C@@H]1C(=O)N1C[C@H](NC(=O)CNC(COCCC(=O)NCCOCCOCCOCCOC[C@H]3OC[C@H](Nc4cncc(C(F)(F)F)n4)[C@@H](O)[C@H]3O)COCCC(=O)NCCOCCOCCOCCOC[C@H]3OC[C@H](Nc4cncc(C(F)(F)F)n4)[C@@H](O)[C@H]3O)C[C@H]1C(=O)N[C@@H](CC(=O)O)C(=O)N2 [Compound 92]
EC50 [1, 5]: < 100 nM | Kd ([4]; SPR, read-out: IgG KD): < 100 nM

CC(C)C[C@@H]1NC(=O)[C@H](Cc2c[nH]cn2)NC(=O)[C@H](Cc2c[nH]c3ccccc23)NC(=O)[C@H](C)NC(=O)[C@@H](NC(=O)[C@H](CC(=O)O)NC(=O)CCOCCOCCOCCOCCNC(=O)CCCc2cn(CCCCCC(=O)NC(COCCC(=O)NCCOCCOCCOCCOC[C@H]3OC[C@H](Nc4nccc(C(F)(F)F)n4)[C@@H](O)[C@H]3O)COCCC(=O)NCCOCCOCCOCCOC[C@H]3OC[C@H](Nc4nccc(C(F)(F)F)n4)[C@@H](O)[C@H]3O)nn2)CSSC[C@@H](C(=O)N[C@H](C(N)=O)[C@@H](C)O)NC(=O)[C@H](Cc2c[nH]c3ccccc23)NC(=O)[C@H](C(C)C)NC(=O)[C@H](CC(C)C)NC(=O)[C@H](CCC(=O)O)NC(=O)CNC1=O [Compound 22]
EC50 ([1]; read-out: Uptake Assay EC50): < 100 nM | EC50 ([1]; read-out: Uptake EC50): < 100 nM | Kd ([4]; read-out: IgG KD): < 100 nM | Kd ([4]; read-out: IgG SPR Binding Kd): < 100 nM
